Measured values: ChEMBL document CHEMBL3832761, “MMV Pathogen Box Bioactivity Data” (2017)

Legend:
[1] = system: Trypanosoma cruzi; experiment: AntiTrypanosoma cruzi activity IC50 (uM); assay type: functional, organism-based
[2] = system: Trypanosoma brucei; experiment: AntiTrypanosoma brucei activity T. b. brucei IC50 (uM); assay type: functional, organism-based
[3] = system: Trypanosoma brucei; experiment: AntiTrypanosoma brucei activity T. b. rhodesiense IC50 (uM); assay type: functional, organism-based
[4] = system: Leishmania infantum; experiment: AntiLeishmania activity L. infantum (macrophages) IC50 (uM); assay type: functional, organism-based
[5] = system: MRC5; experiment: MRC5 CC50 (uM) Cytotoxicity; assay type: functional; conditions: Homo sapiens
[6] = PMM CC50 (uM) Cytotoxicity; assay type: functional; conditions: Macrophage
[7] = system: Plasmodium falciparum; experiment: Antimalarial activity: Asexual Blood Stage Plasmodium falciparum 3D7 IC50 (uM); assay type: functional, organism-based
[8] = system: Plasmodium falciparum; experiment: Antimalarial activity: Asexual Blood Stage Plasmodium falciparum Dd2 IC50 (uM); assay type: functional, organism-based
[9] = system: Plasmodium falciparum; experiment: Antimalarial activity: Asexual Blood Stage Plasmodium falciparum W2 IC50 (uM); assay type: functional, organism-based
[10] = system: Plasmodium berghei; experiment: Antimalarial activity: Liver Stage Plasmodium berghei sporozoite Luciferase assay: inhibition at 10 uM (%); assay type: functional
[11] = system: Plasmodium falciparum; experiment: Antimalarial activity: Gametocytes Plasmodium falciparum NF54 Gametocytes Stage V: inhibition at 10 uM (%); assay type: functional
[12] = system: HepG2; experiment: Cytotoxicity data HepG2 CC20 (uM); assay type: functional
[13] = system: HepG2; experiment: HepG2 inhibition at 10 uM (%) Cytotoxicity; assay type: functional; conditions: Homo sapiens

Row | SMILES | IC50 [1] | IC50 [2] | IC50 [3] | IC50 [4] | CC50 [5] | CC50 [6] | IC50 [7] | IC50 [8] | IC50 [9] | Inhibition [10] | Inhibition [11] | CC20 [12] | inhibition at 10 µM [13]
1 | CC1CCCCN1C(=O)NCCc1coc(-c2ccc(F)cc2)n1 (centres undefined) | 480 nM | 130 nM | 110 nM | > 64000 nM | > 64000 nM | > 64000 nM |  |  |  |  |  |  | 
2 | Cc1nn2c(O)c3c(nc2c1-c1ccc(F)cc1)CCCC3 | 2210 nM | 1940 nM | 480 nM | 50400 nM | > 64000 nM | > 64000 nM |  |  |  |  |  |  | 
3 | CNc1cc(C)nc(C2CN(C(=O)c3n[nH]c4ccccc34)CCO2)c1 (centres undefined) | 3890 nM |  |  |  | > 64000 nM |  |  |  |  |  |  |  | 
4 | Cc1nn2c(=O)c3c([nH]c2c1-c1ccc(Cl)cc1)CCCC3 | 710 nM | 490 nM | 140 nM | 44000 nM | > 64000 nM | 48000 nM |  |  |  |  |  |  | 
5 | Cc1ccc(S(=O)(=O)Nc2ccc(CN3CCN(C(=O)c4cccc(C#N)c4)CC3)cc2)cc1 | 1200 nM | 140 nM | 120 nM | 32000 nM | > 64000 nM | > 64000 nM |  |  |  |  |  |  | 
6 | COc1ccc(Oc2ccc([C@@H](C)N(C)c3ncc4c(N)nc(N)nc4n3)cc2)cc1 |  |  |  | 30 nM | 5400 nM | 4000 nM |  |  |  |  |  |  | 
7 | CC(c1cc(Cl)cc(Cl)c1)N(C)c1ncc2c(N)nc(N)nc2n1 (centres undefined) |  |  |  | 540 nM | 5900 nM | > 32000 nM |  |  |  |  |  |  | 
8 | CNC(=O)C1Cc2ccccc2N1C(=O)Cc1ccc(F)cc1 (centres undefined) | > 64000 nM | 490 nM | 380 nM | > 64000 nM | > 64000 nM | > 64000 nM |  |  |  |  |  |  | 
9 | O=C(NCc1nnc2n1CCCCC2)c1ccc(-c2ccc(F)cc2)o1 | 2070 nM | 100 nM | 130 nM | > 64000 nM | > 64000 nM | > 64000 nM |  |  |  |  |  |  | 
10 | COc1ccc(C2=NN(C3CCCCCC3)C(=O)C2(C)C)cc1OCCCCOc1ccc(-c2nn[nH]n2)cc1 |  | 790 nM |  |  |  |  |  |  |  |  |  |  | 
11 | Cc1noc(C)c1C(=O)N1CCCC(c2[nH]c3c(C)cccc3c2-c2ccncc2)C1 (centres undefined) |  |  |  |  |  |  | 940 nM | 740 nM | 620 nM | 52% | 42% | >80000 nM | 0%
12 | O=C(NCCc1ccn(-c2ccccc2)n1)C1CCCCC1 | 730 nM | 150 nM | < 130 nM | > 64000 nM | > 64000 nM | > 64000 nM |  |  |  |  |  |  | 
13 | Clc1ccc(CN2CCN(C3=NCCN3)CC2)cc1Cl | 6570 nM | 31600 nM | 30100 nM | > 64000 nM | > 64000 nM | > 64000 nM |  |  |  |  |  |  | 
14 | CN1CCCN(C(c2ccccc2)c2ccc(Cl)cc2)CC1 (centres undefined) [HOMOCHLORCYCLIZINE] | 9440 nM | 4640 nM | 1940 nM | 36300 nM | 31800 nM | 48000 nM |  |  |  |  |  |  | 
15 | COc1ccc(Cl)cc1NC(=O)CN(C)C(=O)c1cnn(-c2ccccc2)n1 |  |  |  |  |  |  | 240 nM | 240 nM | 290 nM | 48% | 60% | 72200 nM | 6%
16 | COc1ccccc1CNC(=O)c1cc(C2CC2)nc2c1cnn2C(C)C |  |  |  |  |  |  | 940 nM | 1500 nM | 2030 nM | 39% | 36% | 11300 nM | 5%
17 | CC(=O)Nc1ccc(-c2noc(CC3CCCN(Cc4cccc(F)c4C)C3)n2)cc1 (centres undefined) | 2800 nM | 32300 nM | 25100 nM | 1590 nM | 29400 nM | > 64000 nM |  |  |  |  |  |  | 
18 | CCC(=O)Nc1ccccc1C(=O)Nc1ccccn1 | > 64000 nM | 2460 nM | 1310 nM | > 64000 nM | > 64000 nM | > 64000 nM |  |  |  |  |  |  | 

Row | SMILES | IC50 [1] | IC50 [2] | IC50 [3] | IC50 [4] | CC50 [5] | CC50 [6] | IC50 [7] | IC50 [8] | IC50 [9] | Inhibition [10] | Inhibition [11] | CC20 [12] | inhibition at 10 µM [13]
19 | Cc1noc(C)c1COc1cccc(C(=O)N=c2[nH]cccc2C)c1 | > 64000 nM | 2070 nM | 650 nM | > 64000 nM | > 64000 nM | > 64000 nM |  |  |  |  |  |  | 
20 | COc1ccc(S(=O)(=O)Nc2ccc(CN3CCN(C(=O)c4cccc(C#N)c4)CC3)cc2)cc1 | 2700 nM | 500 nM | 400 nM | 52200 nM | > 64000 nM | > 64000 nM |  |  |  |  |  |  | 
21 | COc1ccc(C2=NN(C3CCCCCC3)C(=O)[C@@H]3CC=CC[C@H]23)cc1OCCCCOc1ccc(-c2nnn[nH]2)cc1 |  | 20 nM |  |  |  |  |  |  |  |  |  |  | 
22 | COc1ccc(C2CC(c3cccs3)=NN2C(=O)c2ccco2)cc1OC (centres undefined) |  |  |  |  |  |  | 300 nM | 980 nM | 850 nM | 26% | 1% | 43100 nM | 15%
23 | CO/C=C(/C(=O)OC)c1ccccc1Oc1cc(Oc2ccccc2C#N)ncn1 [AZOXYSTROBIN] |  |  |  |  | > 28000 nM |  | 50 nM | 90 nM | 30 nM | 97% | 32.5% |  | 37%
24 | NCCN(C(=O)c1ccc(Cl)cc1Cl)c1ccc(OCc2ccc(Cl)cc2)cc1 | 620 nM | < 130 nM | < 130 nM | 630 nM | 4000 nM | 1000 nM |  |  |  |  |  |  | 
25 | Cc1cc(Nc2ccncc2)n2nc(C)c(-c3ccccc3Cl)c2n1 |  |  |  |  |  |  | 630 nM | 690 nM | 490 nM | 35% | 46% | 80000 nM | 3%
26 | O=C(Nc1ccc(F)c(-c2nc3cc(-c4ccccc4)cnc3[nH]2)c1)N1CCCC1 | < 130 nM | < 130 nM | < 130 nM | 160 nM | 400 nM | 16000 nM |  |  |  |  |  |  | 
27 | CCN(CC)S(=O)(=O)c1ccc(C(=O)Nc2cc(C)nn2-c2nc(C)c(C)c(=O)[nH]2)cc1 | 1960 nM | 5300 nM | 1700 nM | 6870 nM | 6600 nM | > 64000 nM |  |  |  |  |  |  | 
28 | O=C([C@@H](c1ccc(Cl)cc1)c1cccnc1)N1CCN(c2ccc(C(F)(F)F)cc2)CC1 | 10 nM |  |  |  |  |  |  |  |  |  |  | 19000 nM | 
29 | FC(F)(F)c1ccc(N(c2cccnc2)C2CCN(c3ccc(C(F)(F)F)cn3)CC2)cc1 | 10 nM |  |  |  |  |  |  |  |  |  |  | 25800 nM | 
30 | CN1CCN(S(=O)(=O)c2ccc(-c3ccc4c(Nc5ccc6nn[nH]c6c5)ccnc4c3)cc2)CC1 |  |  |  |  |  |  | 420 nM | 420 nM | 800 nM | 0% | 8% | >80000 nM | 0%
31 | Cc1cc2ccccc2n1CC(=O)N1CC(C(=O)N2CCCCC2)Oc2ccccc21 (centres undefined) |  |  |  |  |  |  | 1080 nM | 770 nM | 1050 nM | 1% | 30% | 21800 nM | 10%
32 | CS(=O)(=O)c1ccccc1C(=O)N(Cc1ccccc1)c1ccccc1 | 35400 nM | 560 nM | 400 nM | > 64000 nM | > 64000 nM | > 64000 nM |  |  |  |  |  |  | 
33 | CCOC(=O)c1noc(N)c1-c1ccccc1 | > 64000 nM | 1220 nM | 460 nM | > 64000 nM | > 64000 nM | > 64000 nM |  |  |  |  |  |  | 
34 | C[C@H](c1ccc2c(c1)CCCC2)N(C)c1ncc2c(N)nc(N)nc2n1 |  |  |  | 470 nM | 7100 nM | 8000 nM |  |  |  |  |  |  | 
35 | CNCCC(Oc1ccc(C(F)(F)F)cc1)c1ccccc1 (centres undefined) [FLUOXETINE] |  |  |  |  | 11400 nM | 16000 nM |  |  |  |  |  | 8970 nM | 
